According to the supplement of paper PMC12137928:
Where a name gives a salt, the structure may show the parent alone.

Test system: HCT116
Conditions: 72 h
In short: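 Each well of the 1536-well plates received 250 HCT116 cells, which attached over 5 h. Luminescence was measured with CellTiter-Glo, scaled with vehicle as 0% and positive control as -100%, and pattern-corrected. A four-parameter Hill fit yielded IC50 and maximal efficacy.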

Work on `CN(C)C(=O)Oc1ccc[n+](C)c1` [Pyridostigmine bromide] yielded an IC50 cell viability (ICRF193 0 nM) of over 45.8 µM and an IC50 cell viability (ICRF193 200 nM) of over 45.8 µM.

Compound `Cc1ncc(COP(=O)(O)O)c(C=O)c1O` [Pyridoxal phosphate hydrate] has an IC50 cell viability (ICRF193 0 nM) of over 45.8 µM and an IC50 cell viability (ICRF193 200 nM) of over 45.8 µM.

Compound `Cc1ncc(COP(=O)(O)O)c(CN)c1O` [Pyridoxamine phosphate] has an IC50 cell viability (ICRF193 0 nM) of over 45.8 µM and an IC50 cell viability (ICRF193 200 nM) of over 45.8 µM.

In the case of `Cc1ncc(CO)c(CO)c1O` [Pyridoxine], the IC50 cell viability (ICRF193 0 nM) is reported as over 45.8 µM and the IC50 cell viability (ICRF193 200 nM) is reported as over 45.8 µM.

For `COc1ccc(CN(CCN(C)C)c2ccccn2)cc1` [Pyrilamine], the IC50 cell viability (ICRF193 0 nM) was over 45.8 µM and the IC50 cell viability (ICRF193 200 nM) was over 45.8 µM.

`CC(COc1ccc(Oc2ccccc2)cc1)Oc1ccccn1` (configuration not stated) [Pyriproxyfen] was tested, and the IC50 cell viability (ICRF193 0 nM) was over 45.8 µM and the IC50 cell viability (ICRF193 200 nM) was over 45.8 µM.

`Cc1ncc(CSSCc2cnc(C)c(O)c2CO)c(CO)c1O` [Pyrithioxin dihydrochloride] was tested, and the IC50 cell viability (ICRF193 0 nM) was over 45.8 µM and the IC50 cell viability (ICRF193 200 nM) was over 45.8 µM.

With `O=P(O)(O)OP(=O)(O)O` [Pyrophosphoric acid] the IC50 cell viability (ICRF193 0 nM) was over 45.8 µM and the IC50 cell viability (ICRF193 200 nM) was over 45.8 µM.

Compound `C=C[C@H]1CN2CC[C@H]1C[C@H]2[C@H](OC(=O)OCC)c1ccnc2ccc(OC)cc12` [QUININE ETHYL CARBONATE] has an IC50 cell viability (ICRF193 0 nM) of over 45.8 µM and an IC50 cell viability (ICRF193 200 nM) of over 45.8 µM.

`CC(C(=O)O)c1ccc(C2CCCCC2)c2ccccc12` (configuration not stated) [Quadrisol] was tested, and the IC50 cell viability (ICRF193 0 nM) was over 45.8 µM and the IC50 cell viability (ICRF193 200 nM) was over 45.8 µM.

For `O=c1c(O)c(-c2ccc(O)c(O)c2)oc2cc(O)cc(O)c12` [Quercetin], the IC50 cell viability (ICRF193 0 nM) was over 45.8 µM and the IC50 cell viability (ICRF193 200 nM) was over 45.8 µM.

With `OCCOCCN1CCN(C2=Nc3ccccc3Sc3ccccc32)CC1` [Quetiapine] the IC50 cell viability (ICRF193 0 nM) was over 45.8 µM and the IC50 cell viability (ICRF193 200 nM) was over 45.8 µM.

`CCCN1CC(NS(=O)(=O)N(CC)CC)CC2Cc3c(O)cccc3CC21` (configuration not stated) [Quinagolide (hydrochloride)] showed an IC50 cell viability (ICRF193 0 nM) of over 45.8 µM and an IC50 cell viability (ICRF193 200 nM) of over 45.8 µM.

`CCOC(=O)[C@H](CCc1ccccc1)N[C@@H](C)C(=O)N1Cc2ccccc2C[C@H]1C(=O)O` [Quinapril hydrochloride] showed an IC50 cell viability (ICRF193 0 nM) of over 45.8 µM and an IC50 cell viability (ICRF193 200 nM) of over 45.8 µM.

`CCC1NC(=O)c2cc(S(N)(=O)=O)c(Cl)cc2N1` (configuration not stated) [Quinethazone] showed an IC50 cell viability (ICRF193 0 nM) of over 45.8 µM and an IC50 cell viability (ICRF193 200 nM) of over 45.8 µM.

`C=C[C@H]1CN2CC[C@H]1C[C@@H]2[C@@H](O)c1ccnc2ccc(OC)cc12` [Quinidine hydrochloride monohydrate] was tested, and the IC50 cell viability (ICRF193 0 nM) was over 45.8 µM and the IC50 cell viability (ICRF193 200 nM) was over 45.8 µM.

`CC(C)NC[C@@H](O)COc1ccc(CC(N)=O)cc1` [R-(+)-Atenolol] showed an IC50 cell viability (ICRF193 0 nM) of over 45.8 µM and an IC50 cell viability (ICRF193 200 nM) of over 45.8 µM.

In the case of `CNC(C)C(O)c1ccccc1` (configuration not stated) [RACEPHEDRINE HYDROCHLORIDE], the IC50 cell viability (ICRF193 0 nM) is reported as over 45.8 µM and the IC50 cell viability (ICRF193 200 nM) is reported as over 45.8 µM.

Compound `CC(CCc1ccc(O)cc1)NCC(O)c1ccc(O)cc1` (configuration not stated) [RACTOPAMINE HYDROCHLORIDE] has an IC50 cell viability (ICRF193 0 nM) of over 45.8 µM and an IC50 cell viability (ICRF193 200 nM) of over 45.8 µM.

Compound `CC1=C(/C=C/C(C)=C/C=C/C(C)=C/CO)C(C)(C)CCC1` [RETINOL] has an IC50 cell viability (ICRF193 0 nM) of over 45.8 µM and an IC50 cell viability (ICRF193 200 nM) of over 45.8 µM.

Compound `Cc1cc2nc3c(=O)[nH]c(=O)nc-3n(CC(O)C(O)C(O)COP(=O)(O)O)c2cc1C` (configuration not stated) [RIBOFLAVIN 5-PHOSPHATE SODIUM] has an IC50 cell viability (ICRF193 0 nM) of over 45.8 µM and an IC50 cell viability (ICRF193 200 nM) of over 45.8 µM.

`CCc1ccc(Nc2c(F)c(F)cc(F)c2F)c(CC(=O)O)c1` [ROBENACOXIB] gave an IC50 cell viability (ICRF193 0 nM) of over 45.8 µM and an IC50 cell viability (ICRF193 200 nM) of over 45.8 µM.

`Fc1cccc(Br)c1NC1=NCCN1` [ROMIFIDINE] showed an IC50 cell viability (ICRF193 0 nM) of over 45.8 µM and an IC50 cell viability (ICRF193 200 nM) of over 45.8 µM.

For `CCCCCCCCCCCCCCCCCC(=O)NCCCC[C@H](NC(=O)CC[C@@H](NC(=O)[C@H](C)NC(=O)[C@@H](C)O[C@H]1[C@H](O)[C@@H](CO)OC(O)[C@@H]1NC(C)=O)C(N)=O)C(=O)O` (some centres not stated) [ROMURTIDE], the IC50 cell viability (ICRF193 0 nM) was over 45.8 µM and the IC50 cell viability (ICRF193 200 nM) was over 45.8 µM.

`COCCCOc1ccnc(C[S+]([O-])c2nc3ccccc3[nH]2)c1C` (configuration not stated) [Rabeprazole] showed an IC50 cell viability (ICRF193 0 nM) of over 45.8 µM and an IC50 cell viability (ICRF193 200 nM) of over 45.8 µM.

`Cc1nnc(C(=O)NC(C)(C)c2nc(C(=O)NCc3ccc(F)cc3)c(O)c(=O)n2C)o1` [Raltegravir] showed an IC50 cell viability (ICRF193 0 nM) of over 45.8 µM and an IC50 cell viability (ICRF193 200 nM) of over 45.8 µM.
